From US9358228B2, “Therapeutic combinations of netupitant and palonosetron” (Helsinn Healthcare SA, priority 2011, dated 2016)

Legend:
Assay type in all cases: in vivo, rat
[1] = tested on: acetic acid (AA)-induced somatic hypersensitivity in a rodent model; assay: Somatic sensitivity assessment: von Frey hind paw withdrawal after intracolonic acetic acid; conditions: rats; for inhibition of AA-induced somatic hypersensitivity, agent alone: oral, effective dose not given (0.001-1 mg/kg dosed); for effect of 0.001 mg/kg dose alone on somatic hypersensitivity: 0.001 mg/kg oral, agent alone
Protocol: Induction of Acute Visceral and Somatic Hypersensitivity: Visceral and somatic hypersensitivity were induced by infusing dilute (1.5 ml at 0.6%) acetic acid (AA) into the rat colon via a catheter (Intramedic PE 90 tubing) inserted via the anus to the level of the mid-colon. Within 60 mins colonic and somatic hypersensitivity was evident. Somatic Sensitivity Assessment: Von Frey filaments were used to determine the level of somatic sensitivity in all animals receiving intracolonic infusion of AA. The Von Frey instrument measures the level of somatic sensitivity by recording the minimal force required to elicit hind paw withdrawal. The animals were placed in a mesh-bottomed Von Frey caging apparatus and a nylon filament was steadily pushed against the rat's foot pad until withdrawal of the hind paw. The force in grams which elicited hind paw withdrawal was then recorded. Test Compounds: Following surgery, rats were pre-dosed with Palonosetron (1-hr pre-dose), Netupitant (2-hr pre-dose) or methyl cellulose vehicle. Palonosetron and Netupitant were supplied by […] Healthcare Inc. and were stored at 4° C. until prepared for dosing as a suspension in 1% methyl cellulose solution. The drug suspensions were prepared so that each rat received an oral dosing volume of 0.5 ml per 100 g body weight for doses of 0.001, 0.01, 0.1 or 1 mg/kg. Compounds were prepared fresh on the day of use. Statistical Analysis: To determine statistical significance between multiple control and treatment groups, data was compared using one-way ANOVA followed by a Bonferroni post-test. Results were deemed significant when p-values were less than 0.05.

[2] = tested on: spinal dorsal horn neurones in SNL rats; assay: Electrophysiology: electrically-evoked dorsal horn neural responses; conditions: for AB-Fiber Response, Number of Action Potentials / AD-Fiber Response, Number of Action Potentials / C-Fiber Response, Number of Action Potentials / Input Response, Number of Action Potentials / Post Discharge Response, Number of Action Potentials / Wind-up Response, Number of Action Potentials: SNL rats, mean ± S.E.
Protocol: Electrophysiology experiments were conducted on post-operative days 14-17 in anaesthetised rats.
We recorded the evoked responses of dorsal horn lamina V-VI neurones to stimulation of the peripheral receptive field with: • a train of 16 electrical pulses at 3×C-fibre threshold • mechanical von Frey filaments of increasing force—vf 2 g, 8 g, 26 g and 60 g applied to the centre of the receptive field for 10 seconds • heat—40, 45 and 48° C. applied to the centre of the receptive field by a constant water jet for 10 seconds
Following 3 stable baseline responses, 0.03 mg/kg Palonosetron and 0.10 mg/kg Netupitant were administered into the scruff of the neck by subcutaneous injection. Drug effects were followed for two hours with tests carried out at 10, 30, 50, 70, 90 and 110 minutes post injection.
Input represents the post-synaptic C-fibre-evoked dorsal horn neuronal response following the first of the 16 electrical stimuli in the electrical train. It gives a measure of resting pre-synaptic activity (taken as total neuronal responsiveness upstream of the neurone under study, therefore including afferent excitability, activity at terminals and interneurones) and transmitter release in the absence of potentiation. The baseline ‘input’ response given numerically and graphically in this and other studies, was calculated as the number of C-fibre-evoked action potentials produced by the first stimulus (i.e. initial baseline response) multiplied by the total number of stimuli. Aβ-, Aδ-, and C-fibre responses denote the number of action potentials respectively generated in the spinal cord as a consequence of Aβ-, Aδ-, and C-fibre activity following electrical stimulation of their peripheral receptive field. Our Spike 2 Data Capturing software separates out which incoming action potentials are carried by which fibre according to their latency to arrive in the spinal cord following generation (given the different conduction velocities of the fibres). Thus, those arriving within 20 ms of peripheral stimulation are attributed to Aβ-fibres, Aδ-fibres=20-90 ms, and C-fibre-evoked responses were taken as those recorded 90-300 ms after electrical stimulation. Neuronal responses that trail behind between 300-800 ms post-stimulus are quantified as post-discharge, and represent spinal cord hyperexcitability that results as a consequence of repetitive stimulation of the neurone. Activity-dependent hyperexcitability can additionally be measured as wind-up. This value is calculated as the difference between the total number of action potentials at C-fibre latency produced by the train of 16 electrical stimuli, and ‘input’ as defined and calculated above. Therefore, if the first electrical stimulus elicited 15 C-fibre-evoked action potentials, and the total number of C-fibre-evoked action potentials recorded after 16 stimuli was 350, then wind up=350−([…])=200. If each post-synaptic response was independent of previous activity, then in the example above, the cumulative number of action potentials evoked by C-fibres after the 16 electrical stimuli should theoretically be […]. However, temporal summation of action potentials, and post-synaptic hyperexcitability amplify responses, so wind-up is a measure of the additional action potentials recorded above the predicted baseline level.

SNL rats = assay: Behavioural assessment of the neuropathic state: paw withdrawal to von Frey filaments and acetone; conditions: for Paw Withdrawal Frequency (PWD), 2 g vF Filament / Paw Withdrawal Frequency (PWD), 6 g vF Filament / Paw Withdrawal Frequency (PWD), Cooling Acetone: mean ± S.E.
Text: A model of experimental neuropathic pain with symptoms of allodynia and hyperalgesia was established by tightly ligating the L5 and L6 spinal nerves as previously described (Kim and Chung, 1992). Within a sterile theatre, rats weighing approximately 130-150 g were anaesthetised (1:1 O2:N2O, 3% halothane for induction, 1% maintenance) and following a small left-side incision at approximately L4-S2, paraspinal muscle and fat was removed from spinous processes. Part of the L6 traverse process was clipped with rangeurs to expose the parallel-lying L4 and L5 spinal nerves. The L5 nerve was isolated and hooked with a finely-pulled glass rod and tightly tied with non-absorbable 6-0 silk thread distal to the dorsal root ganglion (and proximal to the formation of the sciatic nerve). The L6 nerve was then hooked from under the sacrum and tied in a similar way. Haemostasis was confirmed and the wound was sutured with 3-0 absorbable silk. The surrounding skin was pulled together and secured over the injury with wound clips. Rats recovered in an incubator, and once it had been confirmed that they had no observable motor impairment in their left hindpaw, were re-housed in cages as above. Sham surgery was performed in the same environment and under the same conditions except nerves were not hooked or ligated.
On post-operative days 2, 7, 9 and 14, behavioural signs of punctate mechanical and cooling hypersensitivity were assessed in the left ipsilateral hindpaw relative to the right contralateral hindpaw in awake and alert rats. Rats were individually placed in clear acrylic cubes on an elevated floor of wire mesh, and following a period of acclimation (30 minutes), mechanical sensitivities were determined by paw withdrawal to von Frey (vF) filaments with bending forces 2 g and 6 g (tested in consecutive, ascending force). Each filament was applied to the plantar surface of the paw for ˜2-3 s with enough force to cause buckling, and for each animal this was repeated 10 times at set positions on each paw. […] Cold hypersensitivity was assessed by applying a drop of acetone to each paw 5 times during each testing period, with each application separated by an interval of at least 5 minutes. Withdrawal frequency was quantified as =(number of foot withdrawals/10 or 5 trials as appropriate).

Q: `Cc1ccccc1-c1cc(N2CCN(C)CC2)ncc1N(C)C(=O)C(C)(C)c1cc(C(F)(F)F)cc(C(F)(F)F)c1` [Netu, 2-[3,5-bis(trifluoromethyl)phenyl]-N,2-dimethyl-N-[4-(2-methylphenyl)-6-(4-methylpiperazin-1-yl)pyridin-3-yl]propanamide] was tested. Which “inhibition of AA-induced somatic hypersensitivity, agent alone” value [1] did it give?
A: Its value is “significantly inhibited”.

Q: What about the “effect of 0.001 mg/kg dose alone on somatic hypersensitivity” value [1] of the same molecule?
A: The value was “non-effective”.

Q: What about the “AB-Fiber Response, Number of Action Potentials” value ([2]; Netu 0.1 mg/kg s.c.) of the same molecule?
A: Its value is 135 ± 10.

Q: What about the “AD-Fiber Response, Number of Action Potentials” value ([2]; Netu 0.1 mg/kg s.c.) of the same molecule?
A: Its value is 103 ± 13.

Q: What about the “C-Fiber Response, Number of Action Potentials” value ([2]; Netu 0.1 mg/kg s.c.) of the same molecule?
A: The value was 292 ± 45.

Q: And the “Input Response, Number of Action Potentials” value ([2]; Netu 0.1 mg/kg s.c.)?
A: Its value is 293 ± 46.

Q: What about the “Post Discharge Response, Number of Action Potentials” value ([2]; Netu 0.1 mg/kg s.c.) of the same molecule?
A: The value was 195 ± 29.

Q: What about the “Wind-up Response, Number of Action Potentials” value ([2]; Netu 0.1 mg/kg s.c.) of the same molecule?
A: The value was 270 ± 38.

Q: What about the “effect on electrophysiological measures of pain control, agent alone” value [2] of the same molecule?
A: The value was “independent effect”.

Q: What about the “effect on behavioral hypersensitivities (withdrawal responses to vF2 g, vF6 g, acetone)” value (SNL rats; FIG. 7, SNL rats, 1 mg/kg) of the same molecule?
A: Its value is “appears to inhibit behavioral hypersensitivities”.

Q: And the “Paw Withdrawal Frequency (PWD), 2 g vF Filament” value (SNL rats; SNL rats, Netu 0.1 mg/kg s.c.)?
A: The value was 4.1 ± 1.0.

Q: And the “Paw Withdrawal Frequency (PWD), 6 g vF Filament” value (SNL rats; SNL rats, Netu 0.1 mg/kg s.c.)?
A: Its value is 6.7 ± 1.8.

Q: What about the “Paw Withdrawal Frequency (PWD), Cooling Acetone” value (SNL rats; SNL rats, Netu 0.1 mg/kg s.c.) of the same molecule?
A: The value was 1.9 ± 0.3.

Q: What about the “Paw Withdrawal Frequency (PWD), 2 g vF Filament” value (SNL rats; SNL rats, Netu 1 mg/kg s.c.) of the same molecule?
A: Its value is 3.8 ± 1.2.

Q: And the “Paw Withdrawal Frequency (PWD), 6 g vF Filament” value (SNL rats; SNL rats, Netu 1 mg/kg s.c.)?
A: The value was 6.2 ± 1.5.

Q: What about the “Paw Withdrawal Frequency (PWD), Cooling Acetone” value (SNL rats; SNL rats, Netu 1 mg/kg s.c.) of the same molecule?
A: Its value is 2.7 ± 0.5.

Q: And the “Paw Withdrawal Frequency (PWD), 2 g vF Filament” value (SNL rats; SNL rats, Netu 10 mg/kg s.c.)?
A: Its value is 3.9 ± 1.1.

Q: What about the “Paw Withdrawal Frequency (PWD), 6 g vF Filament” value (SNL rats; SNL rats, Netu 10 mg/kg s.c.) of the same molecule?
A: Its value is 5.9 ± 1.0.

Q: And the “Paw Withdrawal Frequency (PWD), Cooling Acetone” value (SNL rats; SNL rats, Netu 10 mg/kg s.c.)?
A: The value was 2.0 ± 0.4.

Q: What about the “effect in animal models of allodynia/neuropathic pain, agent alone” value (SNL rats; agent alone) of the same molecule?
A: The value was “zero or minimal effect”.

Q: With `Cl.O=C1c2cccc3c2[C@H](CCC3)CN1[C@@H]1CN2CCC1CC2` [Palo, (3aS)-2-[(S)-1-Azabicyclo[2.2.2]oct-3-yl]-2,3,3a,4,5,6-hexahydro-1-oxo-1Hberiz[de]isoquinoline] as the molecule, how does the “inhibition of AA-induced somatic hypersensitivity, agent alone” value [1] read?
A: Its value is “significantly inhibited”.

Q: And the “effect of 0.001 mg/kg dose alone on somatic hypersensitivity” value [1]?
A: The value was “non-effective”.

Q: And the “AB-Fiber Response, Number of Action Potentials” value ([2]; Palo 0.03 mg/kg s.c.)?
A: The value was 141 ± 22.

Q: And the “AD-Fiber Response, Number of Action Potentials” value ([2]; Palo 0.03 mg/kg s.c.)?
A: Its value is 192 ± 51.

Q: What about the “C-Fiber Response, Number of Action Potentials” value ([2]; Palo 0.03 mg/kg s.c.) of the same molecule?
A: Its value is 518 ± 103.

Q: What about the “Input Response, Number of Action Potentials” value ([2]; Palo 0.03 mg/kg s.c.) of the same molecule?
A: The value was 461 ± 86.

Q: What about the “Post Discharge Response, Number of Action Potentials” value ([2]; Palo 0.03 mg/kg s.c.) of the same molecule?
A: The value was 417 ± 127.

Q: And the “Wind-up Response, Number of Action Potentials” value ([2]; Palo 0.03 mg/kg s.c.)?
A: The value was 559 ± 192.

Q: What about the “effect on electrophysiological measures of pain control, agent alone” value [2] of the same molecule?
A: Its value is “zero or minimal effect”.

Q: And the “effect on the number of paw withdrawals to vF 2 g, vF 6 g and acetone” value (SNL rats; FIG. 2, seen in the SNL rats only)?
A: Its value is “dose related reduction”.

Q: And the “Paw Withdrawal Frequency (PWD), 2 g vF Filament” value (SNL rats; SNL rats, Palo 0.03 mg/kg s.c.)?
A: The value was 2.8 ± 0.8.

Q: What about the “Paw Withdrawal Frequency (PWD), 6 g vF Filament” value (SNL rats; SNL rats, Palo 0.03 mg/kg s.c.) of the same molecule?
A: Its value is 5.2 ± 1.5.

Q: What about the “Paw Withdrawal Frequency (PWD), Cooling Acetone” value (SNL rats; SNL rats, Palo 0.03 mg/kg s.c.) of the same molecule?
A: The value was 1.2 ± 0.4.

Q: And the “Paw Withdrawal Frequency (PWD), 2 g vF Filament” value (SNL rats; SNL rats, Palo 0.3 mg/kg s.c.)?
A: Its value is 3.1 ± 0.7.

Q: What about the “Paw Withdrawal Frequency (PWD), 6 g vF Filament” value (SNL rats; SNL rats, Palo 0.3 mg/kg s.c.) of the same molecule?
A: The value was 4.1 ± 1.3.

Q: What about the “Paw Withdrawal Frequency (PWD), Cooling Acetone” value (SNL rats; SNL rats, Palo 0.3 mg/kg s.c.) of the same molecule?
A: The value was 1.2 ± 0.5.

Q: And the “Paw Withdrawal Frequency (PWD), 2 g vF Filament” value (SNL rats; SNL rats, Palo 3 mg/kg s.c.)?
A: Its value is 1.4 ± 0.6.

Q: What about the “Paw Withdrawal Frequency (PWD), 6 g vF Filament” value (SNL rats; SNL rats, Palo 3 mg/kg s.c.) of the same molecule?
A: The value was 1.1 ± 0.4.

Q: What about the “Paw Withdrawal Frequency (PWD), Cooling Acetone” value (SNL rats; SNL rats, Palo 3 mg/kg s.c.) of the same molecule?
A: The value was 1.9 ± 0.3.
